Where “and” joins values, the source holds several entries; their conditions need not be identical. Identical values can stand only once. Like-named read-outs stand apart in the source and are kept apart here. Positions of bridges follow the written chain, without caps; N, C: chain ends. Residues, ends and D or L forms follow the SMILES beside them. *: point of attachment. 5FAM = O=C1OC2(c3ccc(O)cc3Oc3cc(O)ccc32)c2ccc(C(=O)*)cc21
What was measured:
[1] = target: Fc (mixture of human plasma IgG isoforms); test: Fluorescence anisotropy binding, fluorescein-labeled peptide; conditions: 2 nM labeled peptide; 50 mM Tris-HCl, 200 mM NaCl, pH 8.0, 0.01% Tween 20
Procedure: (§1) Peptides were synthesized by BACHEM Bioscience, Inc., (King of Prussia, Pa.), fluorescein labeled and purified by HPLC. Binding studies were performed using either a mixture of human plasma IgG isoforms (the Fc target) or the individual human plasma IgG isoforms: IgG1, IgG2, IgG3, or IgG4. All Fc target proteins were obtained from Calbiochem.
(§2) All measurements were performed in 384 well microplates with 20 nM fluorescein-labeled peptide and various concentrations of the IgG isoform in a volume of between 10 and 20 μl using a Tecan Polarion fluorescence polarization plate reader. All binding buffers included 0.01% (v/v) Tween 20 to prevent peptide adsorption to the microplate. The binding mixture was equilibrated for 10 minutes in the microplate at 30° C. prior to performing the measurement.
(§3) Peptides were synthesized, fluorescein-labeled and HPLC purified as described above. Binding studies were performed using either a mixture of human plasma IgG isoforms (the Fc protein) or the individual human plasma IgG isoforms: IgG1, IgG2, IgG3, or IgG4.
(§4) Measurements were performed in 384-well microplates with 2 nM fluorescein-labeled peptide and a varied concentration of the IgG isoform target in a volume of 10 μl using a Tecan Polarion fluorescence polarization plate reader. The Fc binding buffer was 50 mM Tris-HCl, 200 mM NaCl, pH 8.0, 0.01% Tween 20. The IgG binding buffer was PBS with 0.01% Tween 20. The binding mixtures were equilibrated for 10 minutes in the microplate at 30° C. prior to performing the measurements.

human plasma IgG3 [2] = target: T1, human plasma IgG3 (Homo sapiens, UniProt P01860); test: as above; conditions: 2 nM labeled peptide; PBS with 0.01% Tween 20
T1 construct: the individual human plasma IgG isoforms: IgG1, IgG2, IgG3, or IgG4; purchased Calbiochem; host or cells: human plasma
T1 sequence (P01860 1-377 isoform P01860-1): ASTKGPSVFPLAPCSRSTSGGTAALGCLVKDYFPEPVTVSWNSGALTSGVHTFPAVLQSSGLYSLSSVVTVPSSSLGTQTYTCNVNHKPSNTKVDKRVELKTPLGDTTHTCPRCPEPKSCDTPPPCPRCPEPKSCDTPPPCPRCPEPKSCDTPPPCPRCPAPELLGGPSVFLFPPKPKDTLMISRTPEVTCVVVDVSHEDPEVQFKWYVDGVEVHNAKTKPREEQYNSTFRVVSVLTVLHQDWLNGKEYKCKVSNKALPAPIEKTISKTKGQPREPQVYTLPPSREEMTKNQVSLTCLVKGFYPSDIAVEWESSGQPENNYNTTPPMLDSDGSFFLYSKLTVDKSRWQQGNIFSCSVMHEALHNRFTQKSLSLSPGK
Procedure: as §1, §2, §3, §4

bovine IgG = assay type: binding; conditions: Table 11; unfractionated IgG
Method in brief: (§5)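 Read-out is A280 of unbound IgG (1.4 mg/ml extinction coefficient), with percent bound derived against non-filtered or negative controls. Targets were incubated with immobilized peptides in PBST or TBST for 1-1.5 h at room temperature. Hydrolyzed Sepharose and immobilized Protein A serve as negative and positive controls.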

human IgG = assay type: binding; conditions: Table 11; unfractionated IgG
Method in brief: as §5

human IgG2 = target: T2, human IgG2 (Homo sapiens, UniProt P01859); assay type: binding; conditions: Table 9; immobilized peptide, 5.0 mg/ml resin load
T2 construct: all human subtypes derived from myeloma patients; purchased Calbiochem 400122; host or cells: myeloma patients
T2 sequence (P01859 1-326 isoform P01859-1): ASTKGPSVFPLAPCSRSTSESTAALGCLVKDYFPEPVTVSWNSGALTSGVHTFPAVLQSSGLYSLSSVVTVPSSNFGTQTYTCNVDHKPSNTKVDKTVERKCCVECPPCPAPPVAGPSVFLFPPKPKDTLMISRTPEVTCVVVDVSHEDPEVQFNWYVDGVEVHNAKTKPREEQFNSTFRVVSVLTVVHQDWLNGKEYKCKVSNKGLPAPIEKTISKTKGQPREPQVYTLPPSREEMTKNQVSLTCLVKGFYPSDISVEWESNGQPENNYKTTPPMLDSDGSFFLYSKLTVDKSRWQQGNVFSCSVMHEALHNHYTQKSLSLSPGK
Method in brief: as §5

goat IgG = assay type: binding; conditions: Table 11; unfractionated IgG
Method in brief: as §5

human IgG1 = target: T3, human IgG1 (Homo sapiens, UniProt P01857); assay type: binding; conditions: Table 9; immobilized peptide, 5.0 mg/ml resin load
T3 construct: all human subtypes derived from myeloma patients; purchased Calbiochem 400120; host or cells: myeloma patients
T3 sequence (P01857 1-330 isoform P01857-1): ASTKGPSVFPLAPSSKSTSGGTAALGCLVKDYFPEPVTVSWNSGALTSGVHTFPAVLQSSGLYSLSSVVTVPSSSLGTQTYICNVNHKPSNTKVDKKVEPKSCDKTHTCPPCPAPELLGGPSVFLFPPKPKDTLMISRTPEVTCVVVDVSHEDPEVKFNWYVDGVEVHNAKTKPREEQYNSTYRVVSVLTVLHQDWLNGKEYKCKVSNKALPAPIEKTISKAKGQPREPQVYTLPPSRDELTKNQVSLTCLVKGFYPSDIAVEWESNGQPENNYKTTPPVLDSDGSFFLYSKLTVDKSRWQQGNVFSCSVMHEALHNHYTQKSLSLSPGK
Method in brief: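 Steps: dilute IgG in PBST or TBST; incubate with immobilized peptide 1-1.5 h, RT; collect unbound by centrifugation; measure A280; wash three times; elute with 0.1 M sodium bicarbonate pH 8.5 and/or 0.1 M sodium citrate pH 4.0 for 30-60 min and quantitate.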

mouse IgG = assay type: binding; conditions: Table 11; unfractionated IgG
Method in brief: as §5

human plasma IgG1 = target: T4, human plasma IgG1 (Homo sapiens, UniProt P01857); test: Fluorescence anisotropy binding, Oregon Green labeled peptide
T4 construct: the individual human plasma IgG isoforms: IgG1, IgG2, IgG3, or IgG4; purchased Calbiochem; host or cells: human plasma
T4 sequence (P01857 1-330 isoform P01857-1): as above
Procedure: (§6) Peptides were synthesized by BACHEM and then Oregon Green labeled and HPLC purified. Binding studies were performed using human plasma IgG isoforms: IgG1, IgG2, IgG3, and IgG4, obtained from Calbiochem.
(§7) Binding studies were carried out at either pH 4.0, 7.5, or 9.5, with or without salt in the following buffers:
(§8) 2) 10 mM Sodium Citrate, 500 mM Sodium Chloride, 0.01% Tween 20, pH 4.0;
(§9) 4) […], 500 mM Sodium Chloride, 0.01% Tween 20, pH 7.5;
(§10) 5) 10 mM Sodium Bicarbonate, 0.01% Tween 20, pH 9.5;
(§11) 6) 10 mM Sodium Bicarbonate, 500 mM Sodium Chloride, 0.01% Tween 20, pH 9.5; or […]

human plasma IgG4 = target: T5, human plasma IgG4 (Homo sapiens, UniProt P01861); test: as above
T5 construct: the individual human plasma IgG isoforms: IgG1, IgG2, IgG3, or IgG4; purchased Calbiochem; host or cells: human plasma
T5 sequence (P01861 1-327 isoform P01861-1): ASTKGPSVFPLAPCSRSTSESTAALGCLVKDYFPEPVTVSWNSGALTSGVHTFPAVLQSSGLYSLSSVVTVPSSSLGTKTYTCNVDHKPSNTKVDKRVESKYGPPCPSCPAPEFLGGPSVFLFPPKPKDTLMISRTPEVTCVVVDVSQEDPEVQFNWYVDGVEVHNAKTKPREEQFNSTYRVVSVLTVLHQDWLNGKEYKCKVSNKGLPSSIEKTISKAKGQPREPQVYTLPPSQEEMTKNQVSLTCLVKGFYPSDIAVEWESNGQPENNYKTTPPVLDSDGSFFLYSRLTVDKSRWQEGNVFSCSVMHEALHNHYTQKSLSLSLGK
Procedure: as §6, §7, §8, §9, §10, §11

human plasma IgG3 [3] = target: T1, human plasma IgG3; test: as above
Procedure: as §6, §7, §8, §9, §10, §11

human plasma IgG2 = target: T6, human plasma IgG2 (Homo sapiens, UniProt P01859); test: as above
T6 construct: the individual human plasma IgG isoforms: IgG1, IgG2, IgG3, or IgG4; purchased Calbiochem; host or cells: human plasma
T6 sequence (P01859 1-326 isoform P01859-1): as the sequence (P01859 1-326 isoform P01859-1) above
Procedure: as §6, §7, §8, §9, §10, §11

IgG4 = IgG4 (Homo sapiens, UniProt P01861); assay type: binding; design: all human subtypes derived from myeloma patients; purchased Calbiochem 400126; host or cells: myeloma patients; conditions: Table 9; immobilized peptide, 5.0 mg/ml resin load
Chain of IgG4 (P01861 1-327 isoform P01861-1): as the sequence (P01861 1-327 isoform P01861-1) above
Method in brief: as §5

IgG3 = IgG3 (Homo sapiens, UniProt P01860); assay type: binding; design: all human subtypes derived from myeloma patients; purchased Calbiochem 400124; host or cells: myeloma patients; conditions: Table 9; immobilized peptide, 5.0 mg/ml resin load
Chain of IgG3 (P01860 1-377 isoform P01860-1): as the sequence (P01860 1-377 isoform P01860-1) above
Procedure: In addition, the following targets, all unfractionated IgGs, were also evaluated with selected immobilized peptides for species specificity characterization in a similar format: human IgG, goat IgG, bovine IgG, and mouse IgG (Sigma, product nos. I4506, I5256, I5506, and I15381, respectively). In addition, 10 μl aliquots of hydrolyzed NHS-activated Sepharose 4 Fast Flow (Amersham Pharmacia Biotech, product no. 17-0906-01) and immobilized recombinant Protein A (RepliGen Corp., product no. IPA-400) were also assayed as negative and positive controls. IgG targets were diluted into 10 mM phosphate buffer containing 150 mM NaCl and 0.01% Tween 20, pH 7.2 (PBST) or 50 mM Tris buffer containing, 150 mM NaCl and 0.01% Tween-20, pH 7.5 (TBST). Batch (static) binding and elution studies were conducted in a 96-well assay filterplate (Millipore MultiScreen-HV, with 0.45 μm Durapore membrane, product no. MAHVN4510). The target was allowed to incubate with the resin for 1-1.5 hours with shaking at room temperature. Unbound target was collected by centrifugation of samples from the assay plate directly into a low-UV absorbing 96-well collection plate (Costar, product no. 3635 or Greiner, product no. 655801). The unbound target was then quantitated by reading the absorbance at 280 nm (normalized to 1 cm pathlength, 1.4 mg/ml A280 extinction coefficient) of the collection plate on a microplate spectrophotometer (Molecular Devices Corp., SPECTRAmax PLUS) against a buffer blank.
The percentage bound target was determined by subtracting the mass determined as unbound from the corresponding condition's control values (control non-filtered added directly to the collection plate and/or the negative control). The assay plate was washed (3×) with 200 μl of binding buffer by vacuum filtration followed by addition of 100 μl of various elution conditions (e.g.: 0.1 M sodium bicarbonate buffer, pH 8.5 and/or 0.1 M sodium citrate buffer, pH 4.0). After a 30-60 minute incubation with shaking at room temperature, the eluted target was collected by centrifugation of the assay plate into another collection plate and quantitated in a similar manner. Percent elution of total load was then determined to characterize elution recovery efficiency under various conditions. The assay plate was then washed (3×) with 200 μl of binding buffer by vacuum filtration followed by addition of a resin cleaning condition (e.g., 0.1M CAPS buffer (3-[Cyclohexylamino]-1-propane-sulfonic acid), pH 11.5, to regenerate the resin for re-use. Percentage mass balance determination was calculated to be 90-100% on average.

CC(=O)NCC(=O)N[C@@H](CC(=O)O)C(=O)N[C@@H](CCCNC(=N)N)C(=O)N[C@@H](CCCNC(=N)N)C(=O)N[C@@H](C)C(=O)N[C@H]1CSSC[C@@H](C(=O)N[C@@H](C)C(=O)NCC(=O)N[C@@H](Cc2c[nH]cn2)C(=O)N[C@@H](CCC(=O)O)C(=O)N2CCC[C@H]2C(=O)NCC(=O)N2CCC[C@H]2C(=O)N[C@@H](CCC(=O)O)C(=O)NCC(=O)NCC(=O)NCC(=O)N[C@@H](CCCCNC(=O)c2ccc3c(c2)C(=O)OC32c3ccc(O)cc3Oc3cc(O)ccc32)C(N)=O)NC(=O)[C@H](Cc2c[nH]c3ccccc23)NC(=O)[C@H](C(C)C)NC(=O)[C@H](CC(C)C)NC(=O)[C@H](C)NC(=O)CNC(=O)[C@H](CO)NC(=O)[C@H](Cc2c[nH]c3ccccc23)NC(=O)[C@H](CC(=O)O)NC(=O)[C@H](CCCNC(=N)N)NC(=O)[C@H](CO)NC1=O [DX301] (Ac-GDRRACSRDWSGALVWCAGHEPGPEGGGK(5FAM)-NH2; disulfide 6-17)
Kd [1]: 6.8 ± 4.3 µM | KD (μM) IgG3 (human plasma IgG3 [2]): No binding

CC(=O)N[C@@H](C)C(=O)NCC(=O)N[C@H](C(=O)N[C@@H](Cc1ccc(O)cc1)C(=O)N[C@@H](Cc1c[nH]c2ccccc12)C(=O)N[C@H]1CSSC[C@@H](C(=O)N[C@@H](CC(=O)O)C(=O)N2CCC[C@H]2C(=O)N[C@@H](C)C(=O)N2CCC[C@H]2C(=O)NCC(=O)N2CCC[C@H]2C(=O)N[C@@H](CCC(=O)O)C(=O)NCC(=O)NCC(=O)NCC(=O)N[C@@H](CCCCN)C(N)=O)NC(=O)[C@@H]2CCCN2C(=O)[C@H](CC(C)C)NC(=O)[C@H](CCC(=O)O)NC(=O)[C@H](Cc2c[nH]c3ccccc23)NC(=O)[C@H](Cc2ccccc2)NC(=O)[C@H]([C@@H](C)O)NC1=O)[C@@H](C)O [DX404]
% IgG Capture - Batch Binding, Bovine IgG (bovine IgG): 0% | % IgG Capture - Batch Binding, Human IgG (human IgG): 30% | % IgG Capture - Batch Binding, Human IgG2 (human IgG2): 11% | % IgG Capture - Batch Binding, Goat IgG (goat IgG): 0% | % IgG Capture - Batch Binding, Human IgG1 (human IgG1): 38% | % IgG Capture - Batch Binding, Mouse IgG (mouse IgG): 2% | Kd (human plasma IgG1; 10 nM Tris-HCl, 500 mM Sodium Chloride, pH 7.5, read-out: KD (μM) IgG1 pH 7.5 + salt): > 10 µM | Kd (human plasma IgG1; 10 mM Sodium Bicarbonate, 500 mM Sodium Chloride, pH 9.5, read-out: KD (μM) IgG1 pH 9.5 + salt): > 10 µM | Kd (human plasma IgG1; 10 mM Sodium Bicarbonate, pH 9.5, read-out: KD (μM) IgG1 pH 9.5 − salt): > 10 µM | Kd (human plasma IgG1; 10 mM Sodium Citrate, 500 mM Sodium Chloride, pH 4.0, read-out: KD (μM) IgG1 pH 4.0 + salt): ~2 µM and 2 µM | Kd (human plasma IgG1; 10 mM Sodium Citrate, pH 4.0, read-out: KD (μM) IgG1 pH 4.0 − salt): ~2 µM | Kd (human plasma IgG4; 10 nM Tris-HCl, 500 mM Sodium Chloride, pH 7.5, read-out: KD (μM) IgG4 pH 7.5 + salt): > 10 µM | Kd (human plasma IgG4; 10 mM Sodium Bicarbonate, 500 mM Sodium Chloride, pH 9.5, read-out: KD (μM) IgG4 pH 9.5 + salt): > 10 µM | Kd (human plasma IgG4; 10 mM Sodium Bicarbonate, pH 9.5, read-out: KD (μM) IgG4 pH 9.5 − salt): > 10 µM | Kd (human plasma IgG4; 10 mM Sodium Citrate, 500 mM Sodium Chloride, pH 4.0, read-out: KD (μM) IgG4 pH 4.0 + salt): > 10 µM | Kd (human plasma IgG4; 10 mM Sodium Citrate, pH 4.0, read-out: KD (μM) IgG4 pH 4.0 − salt): > 10 µM | Kd (human plasma IgG4; 10 mM Tris-HCl, pH 7.5, read-out: KD (μM) IgG4 pH 7.5 − salt): > 10 µM | Kd (human plasma IgG3 [3]; 10 mM Sodium Bicarbonate, 500 mM Sodium Chloride, pH 9.5, read-out: KD (μM) IgG3 pH 9.5 + salt): > 10 µM | Kd (human plasma IgG3 [3]; 10 mM Sodium Bicarbonate, pH 9.5, read-out: KD (μM) IgG3 pH 9.5 − salt): > 10 µM | Kd (human plasma IgG3 [3]; 10 mM Sodium Citrate, 500 mM Sodium Chloride, pH 4.0, read-out: KD (μM) IgG3 pH 4.0 + salt): 0.2 µM | Kd (human plasma IgG3 [3]; 10 mM Sodium Citrate, pH 4.0, read-out: KD (μM) IgG3 pH 4.0 − salt): ~0.01 µM and 0.01 µM | Kd (human plasma IgG2; 10 nM Tris-HCl, 500 mM Sodium Chloride, pH 7.5, read-out: KD (μM) IgG2 pH 7.5 + salt): > 10 µM | Kd (human plasma IgG2; 10 mM Sodium Bicarbonate, 500 mM Sodium Chloride, pH 9.5, read-out: KD (μM) IgG2 pH 9.5 + salt): > 10 µM | Kd (human plasma IgG2; 10 mM Sodium Bicarbonate, pH 9.5, read-out: KD (μM) IgG2 pH 9.5 − salt): > 10 µM | Kd (human plasma IgG2; 10 mM Sodium Citrate, 500 mM Sodium Chloride, pH 4.0, read-out: KD (μM) IgG2 pH 4.0 + salt): ~2 µM and 2 µM | Kd (human plasma IgG2; 10 mM Sodium Citrate, pH 4.0, read-out: KD (μM) IgG2 pH 4.0 − salt): ~2 µM | % IgG Capture - Batch Binding, Human IgG4 (IgG4): 10% | % IgG Capture - Batch Binding, Human IgG3 (IgG3): 74%
